The source of these data is patent US9179674B2, “Macrocyclic picolinamide compounds with fungicidal activity” (DOW AGROSCIENCES LLC, priority 2013, dated 2015).

For data set [1], the system named is Mycosphaerella graminicola; Anamorph: Septoria tritici. Nature of the data set: Leaf Blotch of Wheat fungicidal activity (SEPTTR). As to conditions: Zymoseptoria tritici; for pest or weed control at 100 ppm: rate 100 ppm; for pest or weed control at 121.5 g/ha: rate 121.5 g/H. It is filed as in vivo. Summed up:
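Acetone solutions diluted with nine volumes of water containing 110 ppm Triton X-100, sprayed to run-off on first-leaf wheat seedlings (Yuma), inoculated with S. tritici before or after treatment. Plants held in dew chambers, then in a 20 °C greenhouse. Disease severity (0–100%) scored when untreated plants fully symptomatic; % control relative to untreated.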

Another data set concerns Puccinia triticina. The data set is described as follows: Wheat Brown Rust fungicidal activity (PUCCRT). Type of data set: in vivo. Particulars: Puccinia triticina; for pest or weed control at 100 ppm: rate 100 ppm; for pest or weed control at 121.5 g/ha: rate 121.5 g/H. Summed up:
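Yuma wheat seedlings at first-leaf stage sprayed to run-off (acetone solution in water with 110 ppm Triton X-100) or track-sprayed as EC with 0.1% Trycol 5941; inoculated with P. triticina spores before or after treatment. Overnight dark dew at 22° C., then greenhouse 24° C.; disease severity 0–100% gives percent control vs untreated.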

Setting [2] is: 24 h, 1 Day Protectant, read-out: Disease control SEPTTR 1DP.
The mark [3] stands for this setting: 72 h, 3 Day Curative, read-out: Disease control SEPTTR 3DC.
The mark [4] stands for this setting: 24 h, 1 Day Protectant, read-out: Disease control PUCCRT 1DP.
[5] abbreviates: 72 h, 3 Day Curative, read-out: Disease control PUCCRT 3DC.

The structures appear in SMILES notation. Like-named read-outs stand apart in the source and are kept apart here.

For orientation: melting point means the temperature of the solid-liquid transition.

The compound `Cc1ccc(C[C@H]2COC[C@H](N)C(=O)O[C@@H](C)[C@@H]2OCC(C)C)cc1.Cl` had a melting point of 81 to 84 °C.
In turn, `COc1ccnc(C(=O)N[C@H]2COC[C@H](CCc3ccccc3)[C@@H](OC3CCCC3)[C@H](C)OC2=O)c1O` [Compound F1] gave a melting point of 51 to 58 °C. Besides, the pest or weed control at 100 ppm in data set [1] (setting [2]) was in the range of 80 to 100%. In data set [1] (setting [3]), the pest or weed control at 100 ppm is 0 to 80%. Moreover, the pest or weed control at 100 ppm with Puccinia triticina (setting [4]) was 80 to 100%. In the data set on Puccinia triticina (setting [5]), the pest or weed control at 100 ppm was in the range of 80 to 100%.
On to `COc1ccnc(C(=O)N[C@H]2COC[C@H](CCc3ccccc3)[C@@H](OCCCC(F)(F)F)[C@H](C)OC2=O)c1O` [Compound F2], for which the melting point lay in the range of 78 to 81 °C. The pest or weed control at 100 ppm in data set [1] (setting [2]) lay within 80 to 100%. The pest or weed control at 100 ppm in data set [1] (setting [3]) fell in the range of 80 to 100%. For the same compound, in the data set with Puccinia triticina (setting [4]), the pest or weed control at 100 ppm is 80 to 100%. The pest or weed control at 100 ppm in the data set on Puccinia triticina (setting [5]) is 0 to 80%.
`CCCCCO[C@@H]1[C@@H](CCc2ccccc2)COC[C@H](NC(=O)c2nccc(OC)c2O)C(=O)O[C@H]1C` [Compound F3] displayed a melting point of 96 to 98 °C. For the same compound, in data set [1] (setting [2]), the pest or weed control at 100 ppm was 80 to 100%. Further, the pest or weed control at 100 ppm in data set [1] (setting [3]) fell in the range of 80 to 100%. Besides, in the data set on Puccinia triticina (setting [4]), the pest or weed control at 100 ppm was 80 to 100%. In addition, in the data set on Puccinia triticina (setting [5]), the pest or weed control at 100 ppm fell in the range of 80 to 100%.
Turning to `COc1ccnc(C(=O)N[C@H]2COC[C@H](CCc3ccccc3)[C@@H](OCC(C)C)[C@H](C)OC2=O)c1O` [Compound F4], the melting point was in the range of 117 to 120 °C. Further, the pest or weed control at 100 ppm in data set [1] (setting [2]) was 80 to 100%. In data set [1] (setting [3]), the pest or weed control at 100 ppm fell in the range of 80 to 100%. In the data set with Puccinia triticina (setting [4]), the pest or weed control at 100 ppm fell in the range of 80 to 100%. For the same compound, the pest or weed control at 100 ppm in the data set on Puccinia triticina (setting [5]) is 80 to 100%.
`COc1ccnc(C(=O)N[C@H]2COC[C@H](Cc3cccc4ccccc34)[C@@H](OC(=O)C(C)C)[C@H](C)OC2=O)c1O` [Compound F5, (3S,6S,7R,8S)-3-(3-hydroxy-4-methoxypicolin-amido)-6-methyl-8-(naphthalen-1-ylmethyl)-4-oxo-1,5-dioxonan-7-yl isobutyrate] returned a melting point of 139 to 142 °C. For the same compound, the pest or weed control at 100 ppm in data set [1] (setting [2]) is 80 to 100%. Further, the pest or weed control at 100 ppm in data set [1] (setting [3]) fell in the range of 0 to 80%. The pest or weed control at 100 ppm with Puccinia triticina (setting [4]) lay in the range of 0 to 80%. In addition, the pest or weed control at 100 ppm in the data set with Puccinia triticina (setting [5]) fell in the range of 0 to 80%.
The compound `COc1ccnc(C(=O)N[C@H]2COC[C@H](Cc3cccc4ccccc34)[C@@H](OCCCC(F)(F)F)[C@H](C)OC2=O)c1O` [Compound F6] gave a melting point of 118 to 122 °C. Besides, in data set [1] (setting [2]), the pest or weed control at 100 ppm fell in the range of 80 to 100%. For the same compound, the pest or weed control at 100 ppm in data set [1] (setting [3]) fell in the range of 0 to 80%. In the data set with Puccinia triticina (setting [4]), the pest or weed control at 100 ppm was in the range of 0 to 80%.
As to `COc1ccnc(C(=O)N[C@H]2COC[C@H](Cc3ccc(Cl)cc3Cl)[C@@H](Oc3ccc(C)cc3)[C@H](C)OC2=O)c1O` [Compound F44], the melting point was in the range of 81 to 85 °C. Also, the pest or weed control at 100 ppm with Puccinia triticina (setting [4]) fell in the range of 80 to 100%.
For `CCCO[C@@H]1[C@@H](Cc2ccc(C(F)(F)F)cc2)COC[C@H](NC(=O)c2nccc(OC)c2OCOC(C)=O)C(=O)O[C@H]1C` [Compound F101], the pest or weed control at 100 ppm (in data set [1] (setting [2]); in data set [1] (setting [3]); with Puccinia triticina (setting [4]); in the data set with Puccinia triticina (setting [5])) was 80 to 100% each time.
As for `COc1ccnc(C(=O)N[C@H]2COC[C@H](Cc3ccc(C(F)(F)F)cc3)[C@@H](OC(=O)C(C)C)[C@H](C)OC2=O)c1OCOC(C)=O` [Compound F102], the pest or weed control at 100 ppm (in data set [1] (setting [2]); in data set [1] (setting [3]); in the data set with Puccinia triticina (setting [4]); in the data set on Puccinia triticina (setting [5])) was 80 to 100% each time.
Take `CCCCCO[C@@H]1[C@@H](Cc2ccc(C(F)(F)F)cc2)COC[C@H](NC(=O)c2nccc(OC)c2OCOC(C)=O)C(=O)O[C@H]1C` [Compound F103]: the pest or weed control at 100 ppm in data set [1] (setting [2]) fell in the range of 80 to 100%; in data set [1] (setting [3]), 0 to 80%; in the data set on Puccinia triticina (setting [4]), 80 to 100%; with Puccinia triticina (setting [5]) it was 80 to 100%.
As to `COc1ccnc(C(=O)N[C@H]2COC[C@H](CC(F)(F)F)[C@@H](OCC(C)C)[C@H](C)OC2=O)c1OCOC(C)=O` [Compound F104], the pest or weed control at 100 ppm (in data set [1] (setting [2]); in data set [1] (setting [3]); in the data set with Puccinia triticina (setting [4]); in the data set on Puccinia triticina (setting [5])) was 80 to 100% in each case. Further, the pest or weed control at 121.5 g/ha (in data set [1] (setting [2]); in data set [1] (setting [3]); with Puccinia triticina (setting [4]); in the data set on Puccinia triticina (setting [5])) was 80 to 100% each time.
With `COc1ccnc(C(=O)N[C@H]2COC[C@H](Cc3ccc(Cl)cc3Cl)[C@@H](Oc3ccc(C)cc3)[C@H](C)OC2=O)c1OCOC(C)=O` [Compound F113], the melting point is 70 to 74 °C. Moreover, the pest or weed control at 121.5 g/ha with Puccinia triticina (setting [4]) fell in the range of 80 to 100%.
As for `COc1ccnc(C(=O)N[C@H]2COC[C@H](CC3CCCC3)[C@@H](OCC(C)C)[C@H](C)OC2=O)c1OCOC(C)=O` [Compound F115], the pest or weed control at 100 ppm (in data set [1] (setting [2]); in data set [1] (setting [3]); in the data set on Puccinia triticina (setting [4]); in the data set with Puccinia triticina (setting [5])) was 80 to 100% each time. Also, the pest or weed control at 121.5 g/ha (in data set [1] (setting [2]); in data set [1] (setting [3]); with Puccinia triticina (setting [4]); with Puccinia triticina (setting [5])) was 80 to 100% each time.
Turning to `CCCCCO[C@@H]1[C@@H](CC2CCCC2)COC[C@H](NC(=O)c2nccc(OC)c2OCOC(C)=O)C(=O)O[C@H]1C` [Compound F116], the pest or weed control at 100 ppm (in data set [1] (setting [2]); in data set [1] (setting [3]); in the data set with Puccinia triticina (setting [4]); with Puccinia triticina (setting [5])) was 80 to 100% throughout. Moreover, the pest or weed control at 121.5 g/ha (in data set [1] (setting [2]); in data set [1] (setting [3]); with Puccinia triticina (setting [4]); in the data set with Puccinia triticina (setting [5])) was 80 to 100% in each case.
On to `COc1ccnc(C(=O)N[C@H]2COC[C@H](CCc3ccccc3)[C@@H](OC(=O)C3CC3)[C@H](C)OC2=O)c1OCOC(=O)C(C)C` [Compound F118], for which the pest or weed control at 100 ppm (in data set [1] (setting [2]); in data set [1] (setting [3]); with Puccinia triticina (setting [4]); with Puccinia triticina (setting [5])) was 80 to 100% throughout. Moreover, the pest or weed control at 121.5 g/ha (in data set [1] (setting [2]); in data set [1] (setting [3]); with Puccinia triticina (setting [4]); in the data set on Puccinia triticina (setting [5])) was 80 to 100% each time.
As for `CCCO[C@@H]1[C@@H](Cc2ccc(C(F)(F)F)cc2)COC[C@H](NC(=O)c2nccc(OC)c2OCOC(=O)COCC)C(=O)O[C@H]1C` [Compound F120, ((4-methoxy-2-(((3S,7S,8R,9S)-9-methyl-2-oxo-8-propoxy-7-(4-(trifluoromethyl)benzyl)-1,5-dioxonan-3-yl)carbamoyl)pyridin-3-yl)oxy)methyl 2-ethoxyacetate], the pest or weed control at 100 ppm in data set [1] (setting [2]) is 80 to 100%; in data set [1] (setting [3]), 80 to 100%; with Puccinia triticina (setting [4]), 80 to 100%; in the data set with Puccinia triticina (setting [5]), 0 to 80%.
Take `CCOCC(=O)OCOc1c(OC)ccnc1C(=O)N[C@H]1COC[C@H](CC2CCCC2)[C@@H](OC(=O)C(C)C)[C@H](C)OC1=O` [Compound F121]: the pest or weed control at 100 ppm (in data set [1] (setting [2]); in data set [1] (setting [3]); in the data set with Puccinia triticina (setting [4]); in the data set with Puccinia triticina (setting [5])) was 80 to 100% throughout. Further, the pest or weed control at 121.5 g/ha (in data set [1] (setting [2]); in data set [1] (setting [3]); in the data set with Puccinia triticina (setting [4]); with Puccinia triticina (setting [5])) was 80 to 100% in each case.
`CC(C)C(=O)O[C@@H]1[C@@H](Cc2cccc3ccccc23)COC[C@H](N(C(=O)OC(C)(C)C)C(=O)OC(C)(C)C)C(=O)O[C@H]1C` [Compound F128, [(3S,6S,7R,8S)-3-[bis(tert-butoxycarbonyl)amino]-6-methyl-8-(1-naphthylmethyl)-4-oxo-1,5-dioxonan-7-yl]2-methylpropanoate]: the melting point was in the range of 130 to 132 °C.
The compound `C[C@@H]1OC(=O)[C@@H](N(C(=O)OC(C)(C)C)C(=O)OC(C)(C)C)COC[C@H](Cc2cccc3ccccc23)[C@H]1OC1CCCC1` [Compound F132, tert-butyl N-tert-butoxycarbonyl-N-[(3S,7S,8R,9S)-8-(cyclopentoxy)-9-methyl-7-(1-naphthylmethyl)-2-oxo-1,5-dioxonan-3-yl]carbamate] had a melting point of 49 to 55 °C.
Compound `CC(C)CO[C@@H]1[C@@H](Cc2cccc3ccccc23)COC[C@H](N(C(=O)OC(C)(C)C)C(=O)OC(C)(C)C)C(=O)O[C@H]1C` [Compound F133] registered a melting point of 57 to 63 °C.
`CCCCCO[C@@H]1[C@@H](Cc2ccc(C)cc2)COC[C@H](N(C(=O)OC(C)(C)C)C(=O)OC(C)(C)C)C(=O)O[C@H]1C` [Compound F134] had a melting point of 100 to 103 °C.
In the case of `C[C@@H]1OC(=O)[C@@H](N(C(=O)OC(C)(C)C)C(=O)OC(C)(C)C)COC[C@H](Cc2ccc(F)cc2)[C@H]1OC(=O)C1CC1` [Compound F136], the melting point lay in the range of 131 to 133 °C.
